Patent US20070010507A1, “Compounds useful in the therapy of alzheimer's disease and formulations containing them” (priority 2003, published 2007)

What follows are compounds tested on α-secretase-mediated APP metabolism (SH-SY5Y neuroblastoma cells) (assay: α-secretase-induced APPs release in culture medium of neuroblastoma cell line SH-SY5Y). Settings: 10 μM; APPs secreted in culture medium of SH-SY5Y cells; control = 100.
Assay type: cell-based
Procedure: The salts according to the present invention are stable crystalline products having strong antidepressive and anti-Alzheimer actions. The effect of the compounds of the invention on α-secretase-induced APPs release was determined in the culture medium of a neuroblastoma cell line (SH-SY5Y) according to what reported by Galbete J. L. et al. in Biochem. 348,307-313, 2000.

Compared with `CC(C)CCCC1(C)C(CCC(C)C)CC2(CCC(C)C)C(=O)C1(C(=O)C(C)C)C(=O)C(CCC(C)C)=C2O.COc1ccc2c3c1OC1CC(O)C=CC31CCN(C)C2` (stereo not drawn) [Galantamonium octahydrohyperforinate, Galantamine octahydrohyperforinate], `CC(C)=CCC[C@]1(C)[C@@H](CC=C(C)C)C[C@@]2(CC=C(C)C)C(=O)[C@]1(C(=O)C(C)C)C(=O)C(CC=C(C)C)=C2O` [Hyperforin] is lower in APPs %: 3652% for the first, 296% for the second.

Going from `CC(C)CCC[C@]1(C)[C@@H](CCC(C)C)C[C@@]2(CCC(C)C)C(=O)[C@]1(C(=O)C(C)C)C(=O)C(CCC(C)C)=C2O` [Octahydrohyperforin] to “Memantine octahydrohyperforinate [Mentamine octahydrohyperforinate]”, the APPs % rises from 1383% to 3221%.

Same assay, conditions: concentration not given; APPs secreted in culture medium of SH-SY5Y cells; control = 100

First: COc1ccc2c3c1O[C@H]1C[C@@H](O)C=C[C@@]31CCN(C)C2 [Galantamine]
Second: CC(C)=CCC[C@]1(C)[C@@H](CC=C(C)C)C[C@@]2(CC=C(C)C)C(=O)[C@]1(C(=O)C(C)C)C(=O)C(CC=C(C)C)=C2O.COc1ccc2c3c1O[C@H]1C[C@@H](O)C=C[C@@]31CCN(C)C2 [Galantamonium hyperforinate]
The APPs % of the first is lower: 302% for the first, 773% for the second.
